The values that follow come from the supplement of paper PMC12613149.

The nature of data set [1]: collision cross section (TIMS, N2 drift gas) of the primary ion; higher = larger gas-phase ion size.
Data set [2] can be described thus: reversed-phase LC retention time (C18, 15 min MeOH gradient); higher = more hydrophobic / later elution.
Where [3] appears, read: ionization mode: ESI+, ion species: [M+H]+.
[4] abbreviates: ionization mode: ESI-, ion species: [M-H]-.
[5] abbreviates: ionization mode: ESI+, ion species: [M]+.

For the compound `COc1ccc2c(c1)c(CC(=O)O)c(C)n2C(=O)c1ccc(Cl)cc1` [Indomethacin], the collision cross section amounted to 182.58 Å² in data set [1] (setting [3]) and 188.5 Å² in data set [1] (setting [4]). The “reversed-phase LC retention time” value was found to be 15.3 min in data set [2] (setting [3]) and 13.8 min in data set [2] (setting [4]).
`COC(=O)N(C(=O)N1CO[C@@]2(C(=O)OC)Cc3cc(Cl)ccc3C2=N1)c1ccc(OC(F)(F)F)cc1` [Indoxacarb]: the collision cross section in data set [1] (setting [3]) amounted to 206.73 Å². Further, the “reversed-phase LC retention time” value in data set [2] (setting [3]) stood at 16.2 min.
Consider `CC(=O)N(CC(O)CO)c1c(I)c(C(=O)NCC(O)CO)c(I)c(C(=O)NCC(O)CO)c1I` (stereo not drawn) [Iohexol], for which the collision cross section in data set [1] (setting [3]) turned out to be 226.32 Å²; in data set [1] (setting [4]), 220.12 Å². For the same compound, the “reversed-phase LC retention time” value in data set [2] (setting [3]) is 5.4 min; in data set [2] (setting [4]) it was 5.47 min.
For `CN(C(=O)CO)c1c(I)c(C(=O)NCC(O)CO)c(I)c(C(=O)NCC(O)CO)c1I` (stereo not drawn) [Iomeprol], the collision cross section in data set [1] (setting [3]) amounted to 216.41 Å²; in data set [1] (setting [4]), 210.1 Å². The “reversed-phase LC retention time” value in data set [2] (setting [3]) was found to be 5.52 min; in data set [2] (setting [4]), 5.58 min.
On the same counts, the results for `C[C@H](O)C(=O)Nc1c(I)c(C(=O)NC(CO)CO)c(I)c(C(=O)NC(CO)CO)c1I` [Iopamidol] are 216.64 Å², 206.33 Å², 5.52 min and 3.71 min.
Consider `COCC(=O)Nc1c(I)c(C(=O)NCC(O)CO)c(I)c(C(=O)N(C)CC(O)CO)c1I` (stereo not drawn) [Iopromide], for which the collision cross section in data set [1] (setting [3]) amounted to 215.51 Å²; in data set [1] (setting [4]), 212.29 Å². Further, the “reversed-phase LC retention time” value in data set [2] (setting [3]) turned out to be 6.66 min; in data set [2] (setting [4]), 6.74 min.
Turning to `CC(C)C1CCC(Cc2ccc(Cl)cc2)C1(O)Cn1cncn1` (stereo not drawn) [Ipconazole], the collision cross section in data set [1] (setting [3]) was 174.42 Å². The “reversed-phase LC retention time” value in data set [2] (setting [3]) is 16.4 min.
In data set [1] (setting [3]), `CCC(Cc1ccccc1)(C(=O)c1ccc(N2CCOCC2)cc1)N(C)C` (stereo not drawn) [Irgacure 369] had a collision cross section of 196.72 Å². In addition, the “reversed-phase LC retention time” value in data set [2] (setting [3]) stood at 11.3 min.
The corresponding values for `CSc1nc(NC2CC2)nc(NC(C)(C)C)n1` [Irgarol] are 163.17 Å² and 14.4 min.
Compound `CC(C)C(=O)c1ccccc1` [Isobutyrophenone] yielded a collision cross section in data set [1] (setting [3]) of 128.32 Å². Besides, the “reversed-phase LC retention time” value in data set [2] (setting [3]) worked out at 17.1 min.
For `CC1(C)CC(N)CC(C)(CN)C1` (stereo not drawn) [Isophorone diamine], the collision cross section in data set [1] (setting [3]) turned out to be 141.08 Å². Further, the “reversed-phase LC retention time” value in data set [2] (setting [3]) was determined as 1.84 min.
In turn, `CC(C)c1ccc(NC(=O)N(C)C)cc1` [Isoproturon] registered a collision cross section in data set [1] (setting [3]) of 151.88 Å². Moreover, the “reversed-phase LC retention time” value in data set [2] (setting [3]) amounted to 13 min.
On to `CC(C)C1C2CCC1c1c(NC(=O)c3cn(C)nc3C(F)F)cccc12` (stereo not drawn) [Isopyrazam], for which the collision cross section was 185.35 Å² in data set [1] (setting [3]) and 191.1 Å² in data set [1] (setting [4]). The figures for the “reversed-phase LC retention time” value in data set [2] (setting [3]) and in data set [2] (setting [4]) were 16.2 min and 16.6 min, respectively.
For the compound `CCC(C)(CC)c1cc(NC(=O)c2c(OC)cccc2OC)on1` [Isoxaben], the collision cross section is on record as 186.76 Å² in data set [1] (setting [3]) and 186.45 Å² in data set [1] (setting [4]). The “reversed-phase LC retention time” value in data set [2] (setting [3]) turned out to be 14.3 min; in data set [2] (setting [4]), 14.7 min.
`CC[C@H](C)[C@H]1O[C@]2(CC[C@@H]1C)C[C@@H]1C[C@@H](C/C=C(\C)[C@@H](O[C@H]3C[C@H](OC)[C@@H](O[C@H]4C[C@H](OC)[C@@H](O)[C@H](C)O4)[C@H](C)O3)[C@@H](C)/C=C/C=C3\CO[C@@H]4[C@H](O)C(C)=C[C@@H](C(=O)O1)[C@]34O)O2` [Ivermectin B1a]: in data set [1] (setting [4]), the collision cross section stood at 292.22 Å². The “reversed-phase LC retention time” value in data set [2] (setting [4]) was found to be 19.5 min.
In data set [1] (setting [3]), `CNC1(c2ccccc2Cl)CCCCC1=O` (stereo not drawn) [Ketamine] registered a collision cross section of 149.17 Å². Moreover, in data set [2] (setting [3]), the “reversed-phase LC retention time” value was determined as 8.79 min.
In turn, `CC(=O)N1CCN(c2ccc(OC[C@H]3CO[C@](Cn4ccnc4)(c4ccc(Cl)cc4Cl)O3)cc2)CC1` [Ketoconazole] gave a collision cross section in data set [1] (setting [3]) of 216.99 Å². Further, the “reversed-phase LC retention time” value in data set [2] (setting [3]) is 13.2 min.
`CC(C(=O)O)c1cccc(C(=O)c2ccccc2)c1` (stereo not drawn) [Ketoprofen] showed a collision cross section in data set [1] (setting [3]) of 158.88 Å². Besides, the “reversed-phase LC retention time” value in data set [2] (setting [3]) is 13.5 min.
In turn, `CO/N=C(\C(=O)OC)c1ccccc1COc1ccccc1C` [Kresoxim-methyl] returned a collision cross section in data set [1] (setting [3]) of 167.17 Å². For the same compound, the “reversed-phase LC retention time” value in data set [2] (setting [3]) worked out at 15.4 min.
For the compound `N[C@@H](Cc1cc(I)c(Oc2cc(I)c(O)c(I)c2)c(I)c1)C(=O)O` [L-Thyroxine], the collision cross section in data set [1] (setting [3]) is recorded as 217.22 Å²; in data set [1] (setting [4]), 208.7 Å². For the same compound, the “reversed-phase LC retention time” value in data set [2] (setting [3]) came out at 14 min; in data set [2] (setting [4]) it was 13.4 min.
On to `CC(CCc1ccccc1)NCC(O)c1ccc(O)c(C(N)=O)c1` (stereo not drawn) [Labetalol], for which, in data set [1] (setting [3]), the collision cross section came to 176.34 Å². Also, the “reversed-phase LC retention time” value in data set [2] (setting [3]) was 10.5 min.
For `Nc1nnc(-c2cccc(Cl)c2Cl)c(N)n1` [Lamotrigine], the collision cross section in data set [1] (setting [3]) is 153.91 Å². The “reversed-phase LC retention time” value in data set [2] (setting [3]) was 9.33 min.
For `CCCCCCCCCCCC(=O)NCCC[N+](C)(C)CC(=O)O` [Lauramidopropylbetaine], in data set [1] (setting [5]), the collision cross section is given as 200.11 Å². The “reversed-phase LC retention time” value in data set [2] (setting [5]) came to 15.9 min.
On to `CCCCCCCCCCCC(=O)NCC(C)O` (stereo not drawn) [Lauric isopropanolamide], for which the collision cross section in data set [1] (setting [3]) amounted to 178.97 Å². For the same compound, the “reversed-phase LC retention time” value in data set [2] (setting [3]) came out at 16.6 min.
In turn, `CCCCCCCCCCCC(=O)N(CCO)CCO` [Lauryl diethanolamide] gave a collision cross section in data set [1] (setting [3]) of 185.96 Å². For the same compound, the “reversed-phase LC retention time” value in data set [2] (setting [3]) is 16.4 min.
The corresponding values for `O=c1[nH]c2c(c(=O)n1C1CCCCC1)CCC2` [Lenacil] are 157.13 Å² and 12.8 min.
In data set [1] (setting [3]), `CCN(CC)CC(=O)Nc1c(C)cccc1C` [Lidocaine] returned a collision cross section of 156.14 Å². The “reversed-phase LC retention time” value in data set [2] (setting [3]) came out at 8.29 min.
In the case of `CCC[C@@H]1C[C@@H](C(=O)N[C@@H]([C@H]2O[C@H](SC)[C@H](O)[C@@H](O)[C@H]2O)[C@@H](C)O)N(C)C1` [Lincomycin], the values for the collision cross section in data set [1] (setting [3]) and in data set [1] (setting [4]) were 202.11 Å² and 197.99 Å², respectively. In addition, the “reversed-phase LC retention time” value in data set [2] (setting [3]) was found to be 7.84 min; in data set [2] (setting [4]), 13.2 min.
Consider `CON(C)C(=O)Nc1ccc(Cl)c(Cl)c1` [Linuron], for which the collision cross section in data set [1] (setting [3]) is given as 152.6 Å²; in data set [1] (setting [4]), 149.38 Å². Moreover, the figures for the “reversed-phase LC retention time” value in data set [2] (setting [3]) and in data set [2] (setting [4]) were 13.7 min and 14 min, respectively.
